Measurements: patent US7354904B2, “Bacteriocin inducer peptides” (priority 2005, dated 2008)

Tests used:
[1] = Isoelectric point by isoelectrofocusing; assay type: physicochemical
Excerpt: (§1) FIGS. 1A and 1B are photographs showing the direct detection of signal peptide and bacteriocin OR-7 after SDS-PAGE (A) and isoelectrofocusing (B). […] In FIG. 1A Lane 1-Molecular Mass Markers LMW Range 2,100-12,500 (Amersham Pharmacia Biotech): 2,100; 5,780; 8,400; 12,500 Da. […] Lane 3 contained pI standards (Protein Test Mixture, I Marker Proteins, Serva): 10.0, 9.2, 8.1, 6.9, 5.5, 4.3.
(§2) FIGS. 2A and 2B are photographs showing direct detection of signal peptide and bacteriocin 50-52 after SDS-PAGE (A) and isoelectrofocusing (B). […] Lane 3 contained pI standards (Protein Test Mixture, I Marker Proteins, Serva): 10.0, 8.1, 7.9, 6.4, 5.5, 4.3, 4.1, and 3.8.
(§3) FIGS. 3A and 3B are photographs showing the direct detection of signal peptide and bacteriocin 760 after SDS-PAGE(A) and isoelectrofocusing (B). […] Lane 3 contained pI standards (Protein Test Mixture, I Marker Proteins, Serva): 10.0, 8.1, 7.9, 6.4, 5.5, 4.3, 4.1, and 3.8.
At the end of 14 hours the supernatant from the cultures was placed into 500 ml centrifuge flasks with about one milliliter of regenerated Sepharose SP Fast Flow (v/v 500: 1). This was incubated for approximately 1 hour at room temperature with stirring. The suspension was then washed with about 100 ml of a 0.2 M TRIS-HCl buffer pH approximately 6.4. The bacteriocins were eluted by centrifugation with about 100 ml of approximately 0.2 M K2HPO4, pH of about 5.8 at about 7,000×g for approximately 10 minutes. Antagonistic activity of the bacteriocin fractions against C. jejuni and S. enteritidis was assessed using a Spot Test as described above. The level of purity of the bacteriocin fractions was determined by SDS-PAGE. The isoelectric points of the fractions were determined by isoelectric focusing. Concentrations of protein for all bacteriocin fractions were determined at 215 nm using a spectrophotometer.

Campylobacter jejuni = assay: Direct detection of antimicrobial activity: SDS-PAGE / isoelectrofocusing gel overlaid with Campylobacter jejuni; assay type: cell-based
Excerpt: as §1, §2, §3

C. jejuni = assay: Spot Test, antagonistic activity of isolated signal peptides; assay type: cell-based, Campylobacter jejuni; conditions: isolated signal peptide
Protocol: (§4) The antagonistic activity of the bacteriocins produced when using the signal peptide and an inducer strain of bacteria against C. jejuni and S. enteritidis was assessed using a Spot Test. The steps included taking various concentrations of pure preparation (μg/ml) of the bacteriocin in approximately 10 microliters of volume plated onto blood-supplemented Campylobacter agar or Nutrient agar (MPA or Meta Peptone Agar) previously seeded with cells of target bacteria. Plates containing cultures of C. jejuni were grown at about 42° C., under microaerobic conditions. Plates containing S. enteritidis were grown at about 37° C. under aerobic conditions. Activity of the bacteriocin was expressed in arbitrary units (AU) per one milliliter of the preparation at which a visible zone of inhibition of the growth of culture appears (Henderson et al., Archives of Biochemistry and Biophysics, Volume 295, 5-12, 1992; herein incorporated by reference). Specific activity can also expressed as arbitrary units per milligram of pure bacteriocin.
(§5) Its activity was about 200 AU/ml and its molecular weight was about 2.5 kDa, as determined by SDS-PAGE electrophoresis. The isoelectric point (pI) was about 7.9 (FIGS. 1A and 1B).
(§6) Its molecular weight was about 3.1 kDa as measured by SDS-PAGE and the isoelectric point (pI) was about 8.1 (FIGS. 2A and 2B).
(§7) Its molecular weight was about 2.1 kDa as determined by SDS-PAGE electrophoresis and its isoelectric point was about 8.9 (FIGS. 3A and 3B).

S. enteritidis = assay: as above; assay type: cell-based; conditions: isolated signal peptide
Protocol: as §4, §5, §6, §7

[2] = system: Lactobacillus salivarius PVD-32; assay: Influence of signal peptide on bacteriocin OR-7 production, flask culture (fraction protein at 215 nm, activity by Spot Test against C. jejuni and S. enteritidis); assay type: cell-based; conditions: for Activity / Protein Concentration / Protein increase vs. Control / Specific Activity / mg protein/liter: 10% B-B
[3] = system: Lactobacillus salivarius PVD-32; assay: Bacteriocin OR-7 production with signal peptide under scaled up conditions (bioreactor); assay type: cell-based; conditions: V-61 reactor, 10% Brucella Broth, PVD-32, LWP252, peptide 0.2 mg, pH 6.9, 37° C., 14 hours
[4] = system: Enterococcus faecium LWP 50-52; assay: Influence of signal peptide on bacteriocin 50-52 production, flask culture (fraction protein at 215 nm, activity by spot-test against C. jejuni and S. enteritidis); assay type: cell-based
[5] = system: Streptococcus cricetus LWP 760; assay: Influence of signal peptide on bacteriocin 760 production, flask culture (fraction protein at 215 nm, activity by Spot Test against C. jejuni and S. enteritidis); assay type: cell-based
[6] = producer PVD32, no inducer, peptide 0.1 mg
[7] = producer PVD-32 + inducer LWP-252, peptide 0.001 mg
[8] = producer PVD-32 + inducer LWP-252, peptide 0.01 mg
[9] = producer PVD-32 + inducer LWP-252, peptide 0.1 mg
[10] = producer PVD-32, no inducer, peptide 0.001 mg
[11] = producer PVD-32, no inducer, peptide 0.01 mg
[12] = LWP 50-52 + LWP 320, PVD-32 peptide 0.1 mg/ml
[13] = LWP 760 + LWP320, 0.1 mg PVD 32 peptide

KTYYGTNGVHCTKNSLWGKVRLKNMKYDQNTTYMGRLQDILLGWATGAFGKTH (listed as Lactobacillus salivarius) [bacteriocin OR-7, bacteriocin produced by Lactobacillus salivarius PVD-32]
isoelectric point (pI) [1]: about 8.4
antimicrobial activity of band (zone of growth inhibition) (Campylobacter jejuni): corresponds to the antimicrobial activity

MVTKSLVLAWVVALLACGMVKGLT (listed as Lactobacillus salivarius) [PVD-32 Signal Peptide, signal peptide isolated from Lactobacillus salivarius PVD-32, stimulates bacteriocin OR-7 production]
Activity (C. jejuni): about 200 AU/ml
antagonistic activity (C. jejuni): weak antagonistic activity
Activity (S. enteritidis): about 200 AU/ml
antagonistic activity (S. enteritidis): weak antagonistic activity
isoelectric point (pI) [1]: about 7.9
Activity [2, 6]: 102,400 AU/ml
Protein Concentration [2, 6]: 0.18 Mg/ml
Protein increase vs. Control [2, 6]: 0.9
Specific Activity [2, 6]: 568,888 AU/mg
mg protein/liter [2, 6]: 59.4 mg protein/liter
Activity [2, 7]: 409,600 AU/ml
Protein Concentration [2, 7]: 0.22 Mg/ml
Protein increase vs. Control [2, 7]: 1.1
Specific Activity [2, 7]: 1,861,818 AU/mg
mg protein/liter [2, 7]: 72.6 mg protein/liter
Activity [2, 8]: 1,638,400 AU/ml
Protein Concentration [2, 8]: 0.65 Mg/ml
Protein increase vs. Control [2, 8]: 3.25
Specific Activity [2, 8]: 2,520,615 AU/mg
mg protein/liter [2, 8]: 214.5 mg protein/liter
mg protein/liter ([2]; producer PVD-32 + inducer LWP-252, peptide 0.01 mg, listed as signal peptide from PVD-32): about 214.5 mg protein/liter
Activity [2, 9]: 409,600 AU/ml
Protein Concentration [2, 9]: 0.22 Mg/ml
Protein increase vs. Control [2, 9]: 1.1
Specific Activity [2, 9]: 1,861,818 AU/mg
mg protein/liter [2, 9]: 72.6 mg protein/liter
Activity [2, 10]: 204,800 AU/ml
Protein Concentration [2, 10]: 0.2 Mg/ml
Protein increase vs. Control [2, 10]: 1
Specific Activity [2, 10]: 1,024,000 AU/mg
mg protein/liter [2, 10]: 66 mg protein/liter
Activity [2, 11]: 204,800 AU/ml
Protein Concentration [2, 11]: 0.2 Mg/ml
Protein increase vs. Control [2, 11]: 1
Specific Activity [2, 11]: 1,024,000 AU/mg
mg protein/liter [2, 11]: 66 mg protein/liter
production of bacteriocin OR-7 per liter of culture fluid ([2]; simultaneous culture of PVD-32 and LWP-252 with signal peptide (flask and bioreactor)): 214-225 milligrams
Activity [3]: 3,276,800 AU/ml
Amount of Protein produced in One liter [3]: 225 mg
Concentration of Protein [3]: 1.5 mg/mL
Increase in amount of protein vs. control [3]: 3
Specific Activity [3]: 2,184,533 AU/mg
Activity [4, 12]: 819,200 AU/ml
Protein Concentration [4, 12]: 0.25 mg/mL
Protein increase vs. Control [4, 12]: 1
Specific Activity [4, 12]: 3,276,800 AU/mg
mg protein/liter [4, 12]: 82.5 mg protein/liter
yield of bacteriocin 50-52 versus the control ([4]; signal peptide of another strain added to LWP 50-52 + LWP 320): did not increase
Activity [5, 13]: 1,638,840 AU/ml
Increase in amount of protein vs. control [5, 13]: 1
Protein Concentration [5, 13]: 0.30 mg/mL
Protein Produced from 1 liter Culture Fluid [5, 13]: 99 mg
Specific Activity [5, 13]: 5,462,666 Au/mg
yield of bacteriocin 760 versus control ([5]; signal peptide of another strain added to LWP 760 + LWP 320): did not increase

TTKNYGNGVCNSVNWCQCGNVWASCNLATGCAAWLCKLA (listed as Enterococcus faecium) [bacteriocin 50-52, bacteriocin produced by Enterococcus faecium LWP 50-52]
isoelectric point (pI) [1]: about 8.4
antimicrobial activity of band (zone of growth inhibition) (Campylobacter jejuni): corresponds to the antimicrobial activity

B1: NRWYCNSAAGGVGGAAVCGLAGYVGEAKENIAGEVRKGWGMAGGFTHNKACKSFPGSGWASG (protein, listed as Streptococcus cricetus)
chain: NRWYCNSAAGGVGGAAVCGLAGYVGEAKENIAGEVRKGWGMAGGFTHNKACKSFPGSGWASG
notes: bacteriocin produced by Streptococcus cricetus LWP 760
isoelectric point (pI) [1]: about 9.5
antimicrobial activity of band (zone of growth inhibition) (Campylobacter jejuni): corresponds to the antimicrobial activity
